Patent US8846685B2, “Human protein tyrosine phosphatase inhibitors and methods of use” (Aerpio Therapeutics Inc., priority 2006, dated 2014)

Molecular target: T1, PTP1B (Homo sapiens, UniProt P18031)
T1 sequence (P18031 1-435): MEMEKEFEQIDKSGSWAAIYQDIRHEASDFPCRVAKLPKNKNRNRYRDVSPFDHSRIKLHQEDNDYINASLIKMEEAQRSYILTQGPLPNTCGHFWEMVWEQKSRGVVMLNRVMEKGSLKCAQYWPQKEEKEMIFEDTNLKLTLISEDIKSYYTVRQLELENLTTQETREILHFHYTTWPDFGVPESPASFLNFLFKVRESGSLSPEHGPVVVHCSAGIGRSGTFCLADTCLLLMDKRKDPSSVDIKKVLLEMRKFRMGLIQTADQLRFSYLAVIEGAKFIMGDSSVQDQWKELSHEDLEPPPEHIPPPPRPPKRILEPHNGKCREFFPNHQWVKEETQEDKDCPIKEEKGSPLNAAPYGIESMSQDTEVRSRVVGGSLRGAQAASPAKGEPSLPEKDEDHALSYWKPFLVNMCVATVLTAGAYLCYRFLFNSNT
Assay: PTP1B activity (IC50)
Assay type: biochemical

`COC(=O)N[C@@H](Cc1ccccc1)C(=O)N[C@@H](Cc1ccc(NS(=O)(=O)O)cc1)c1nc(-c2ccsc2)cs1` [compound 73] and `COC(=O)N[C@@H](Cc1ccccc1)C(=O)N[C@@H](Cc1ccc(NS(=O)(=O)O)cc1)c1nc2ccccc2s1` [compound 79] are within 1.5-fold of each other in IC50: 900 nM for the first, 740 nM for the second.

`COC(=O)N[C@@H](Cc1ccccc1)C(=O)N[C@@H](Cc1ccc(NS(=O)(=O)O)cc1)c1cscn1` [compound 76] and `CCc1csc([C@H](Cc2ccc(NS(=O)(=O)O)cc2)NC(=O)[C@H](Cc2ccccc2)NC(=O)CNC(=O)OC)n1` [compound 80] are within 1.5-fold of each other in IC50: 370 nM for the first, 300 nM for the second.

Going from `COC(=O)N[C@@H](Cc1ccccc1)C(=O)N[C@@H](Cc1ccc(NS(=O)(=O)O)cc1)c1csc(-c2ccc(-c3ccccn3)s2)n1` [compound 77] to `COC(=O)N[C@@H](Cc1ccccc1)C(=O)N[C@@H](Cc1ccc(NS(=O)(=O)O)cc1)c1nc(C)c(-c2ccccc2)s1` [compound 78], the IC50 falls from 510 nM to 170 nM (3-fold). The second is the more potent here.

`CCc1cnc([C@H](Cc2ccc(NS(=O)(=O)O)cc2)NC(=O)[C@H](Cc2ccccc2)N(C)C(=O)OC)s1` [compound 81] and `CCc1nc([C@H](Cc2ccc(NS(=O)(=O)O)cc2)NC(=O)[C@H](Cc2ccccc2)N(C)C(=O)OC)cs1` [compound 82] are within 1.5-fold of each other in IC50: 640 nM for the first, 700 nM for the second.

With `COC(=O)N(C)[C@@H](Cc1ccccc1)C(=O)N[C@@H](Cc1ccc(NS(=O)(=O)O)cc1)c1csc(-c2cccs2)n1` [compound 83] the IC50 was 13200 nM.
